{"source": "patent US4505924A", "about": "“Pharmaceutical preparation for the topical treatment of acne” (Richardson-Vicks Ltd., priority 1982, dated 1985)", "key": {"P. acnes [1]": {"tested_on": "P. acnes", "assay": "Zone diffusion test", "assay_type": "cell-based", "method": "(§1) A zone diffusion test was carried out on the three emulsions. The results were as follows:\n(§2) The ranking order for activity against P. acnes was the same as the GMS emulsions."}, "S. epidermidis": {"tested_on": "S. epidermidis", "assay": "Zone diffusion test", "assay_type": "cell-based", "method": "as §1, §2"}, "hyaluronidase": {"tested_on": "hyaluronidase", "assay": "Hyaluronidase production by P. acnes in continuous culture (chemostat)", "assay_type": "cell-based, Propionibacterium acnes", "details": "growth in the presence of 10 μg/ml Imazalil", "source_text": "(§3) The enzymes are believed to play a role in the pathogenesis of acne. Imazalil is a direct lipase inhibitor and also reduces the production of hyaluronidase and acid phosphatase. Hexamidine likewise reduces the lipase activity.\n(§4) Imazalil and Hexamidine have been studied for anti-enzymic properties against the production and activity of the exoenzymes of Propionibacterium acnes.\n(§5) (ii) Imazalil reduced the output of hyaluronidase and acid phosphatase by P.acnes.\n(§6) Levels of hyaluronidase fell by 50% after growth in the presence of 10 μg/ml Imazalil.\n(§7) (ii) Production of lipase, hyaluronidase and acid phosphatase was markedly affected by a mixture of 10 μg/ml Imazalil and 1 μg/ml Hexamidine. […] Hyaluronidase output was reduced by 50%. Acid phosphatase output was reduced by 80%."}, "acid phosphatase": {"tested_on": "acid phosphatase", "assay": "Acid phosphatase production by P. acnes in continuous culture (chemostat)", "assay_type": "cell-based, Propionibacterium acnes", "details": "growth in the presence of 10 μg/ml Imazalil", "source_text": "as §3, §4, §5, §6, §7"}, "[2]": {"assay": "Zone diffusion test for synergistic activity", "assay_type": "cell-based", "details": "single substance; for zone of inhibition at 10 µg/disc: 10 μg; for zone of inhibition at 100 µg/disc: 100 μg", "method": "Imazalil and Hexamidine were tested for synergistic activity using a zone diffusion test."}, "P. acnes [3]": {"tested_on": "P. acnes", "assay": "Zone diffusion test using 1% artificial sebum in agar (resistance to inactivation by sebum)", "assay_type": "cell-based", "details": "for zone of inhibition at 10 µg/disc / zone of inhibition at 100 µg/disc: Cutibacterium acnes; for zone of inhibition at 10 µg/disc: 10 μg; for zone of inhibition at 100 µg/disc: 100 μg"}, "lipase": {"tested_on": "lipase", "assay": "Direct inhibition of P. acnes lipase activity", "assay_type": "biochemical, Propionibacterium acnes", "method": "as §4\nThere was a 29% reduction of lipase activity in the presence of 10 μg/ml Imazalil and a 68% reduction with 100 μg/ml Imazalil.\n(i) A leval of 1 μg/ml Hexamidine reduced lipase activity by 33%.\n(i) 100 μg/ml Imazalil and 1 ug/ml Hexamidine reduced lipase activity by 55%."}, "Pi. ovale": {"tested_on": "Pi. ovale", "assay": "Zone diffusion test", "assay_type": "cell-based", "details": "Pityrosporum ovale, read-out: Zone of Imhibition, Pi. ovale"}, "[4]": {"details": "1% artificial sebum in agar, read-out: Zone of Inhibition, Sebum"}, "[5]": {"details": "control agar, read-out: Zone of Inhibition, Control"}}, "note": "Like-named read-outs stand apart in the source and are kept apart here."}
{"smiles": "C=CCOC(Cn1ccnc1)c1ccc(Cl)cc1Cl", "note": "(stereo not drawn) [Imazalil, 1-[2-(2,4-dichlorophenyl)-2-(2-propenyloxy)ethyl]-1H-imidazole]", "values": [{"measurement": "zone of inhibition at 10 µg/disc", "setting": "P. acnes [1]; Cutibacterium acnes, 10 μg, read-out: Zone of Imhibition, P. acnes", "result": 3, "unit": "mm"}, {"measurement": "zone of inhibition at 80 µg/disc", "setting": "P. acnes [1]; Cutibacterium acnes, 80 μg, read-out: Zone of Imhibition, P. acnes", "result": 22, "unit": "mm"}, {"measurement": "zone of inhibition at 10 µg/disc", "setting": "S. epidermidis; Staphylococcus epidermidis, 10 μg, read-out: Zone of Imhibition, S. epidermidis", "result": 3, "unit": "mm"}, {"measurement": "zone of inhibition at 80 µg/disc", "setting": "S. epidermidis; Staphylococcus epidermidis, 80 μg, read-out: Zone of Imhibition, S. epidermidis", "result": 7.5, "unit": "mm"}, {"measurement": "fall of hyaluronidase levels", "setting": "hyaluronidase", "result": 50, "unit": "%"}, {"measurement": "Production of acid phosphatase", "setting": "acid phosphatase", "result": "totally inhibited"}, {"measurement": "zone of inhibition at 10 µg/disc", "setting": "[2]", "result": 0, "unit": "mm"}, {"measurement": "zone of inhibition at 100 µg/disc", "setting": "[2]", "result": 5.5, "unit": "mm"}, {"measurement": "inhibitive effect of lipids (sebum) on activity", "setting": "P. acnes [3]; 1% artificial sebum in agar", "result": "partially inhibited"}, {"measurement": "zone of inhibition at 10 µg/disc", "setting": "P. acnes [3]; [4]", "result": 0, "unit": "mm"}, {"measurement": "zone of inhibition at 10 µg/disc", "setting": "P. acnes [3]; [5]", "result": 0, "unit": "mm"}, {"measurement": "zone of inhibition at 100 µg/disc", "setting": "P. acnes [3]; [4]", "result": 1.5, "unit": "mm"}, {"measurement": "zone of inhibition at 100 µg/disc", "setting": "P. acnes [3]; [5]", "result": 5, "unit": "mm"}, {"measurement": "reduction of lipase activity", "setting": "lipase; 10 μg/ml Imazalil", "result": 29, "unit": "%"}, {"measurement": "reduction of lipase activity", "setting": "lipase; 100 μg/ml Imazalil", "result": 68, "unit": "%"}, {"measurement": "zone of inhibition at 10 µg/disc", "setting": "Pi. ovale; 10 μg", "result": 11, "unit": "mm"}, {"measurement": "zone of inhibition at 80 µg/disc", "setting": "Pi. ovale; 80 μg", "result": 28, "unit": "mm"}]}
{"smiles": "N=C(N)c1ccc(OCCCCCCOc2ccc(C(=N)N)cc2)cc1", "note": "[Hexamidine, 4,4-(hexamethylene (dihydroxy)-dibenzamidine-di-β-hydroxy ethanesulfonate]", "values": [{"measurement": "Zone of Imhibition, P. acnes", "setting": "P. acnes [1]; 20 μg", "result": 22.5, "unit": "mm"}, {"measurement": "zone of inhibition at 20 µg/disc", "setting": "P. acnes [1]; Cutibacterium acnes, 20 μg, read-out: Zone of Imhibition, P. acnes", "result": 17, "unit": "mm"}, {"measurement": "Zone of Imhibition, S. epidermidis", "setting": "S. epidermidis; 20 μg", "result": 13, "unit": "mm"}, {"measurement": "zone of inhibition at 20 µg/disc", "setting": "S. epidermidis; Staphylococcus epidermidis, 20 μg, read-out: Zone of Imhibition, S. epidermidis", "result": 10, "unit": "mm"}, {"measurement": "zone of inhibition at 1 µg/disc", "setting": "[2]; 1 μg", "result": 3, "unit": "mm"}, {"measurement": "zone of inhibition at 10 µg/disc", "setting": "[2]", "result": 10, "unit": "mm"}, {"measurement": "zone of inhibition at 100 µg/disc", "setting": "[2]", "result": 29.5, "unit": "mm"}, {"measurement": "inhibitive effect of lipids (sebum) on activity", "setting": "P. acnes [3]; 1% artificial sebum in agar", "result": "totally resistant"}, {"measurement": "zone of inhibition at 10 µg/disc", "setting": "P. acnes [3]; [4]", "result": 11, "unit": "mm"}, {"measurement": "zone of inhibition at 10 µg/disc", "setting": "P. acnes [3]; [5]", "result": 9, "unit": "mm"}, {"measurement": "zone of inhibition at 100 µg/disc", "setting": "P. acnes [3]; [4]", "result": 33, "unit": "mm"}, {"measurement": "zone of inhibition at 100 µg/disc", "setting": "P. acnes [3]; [5]", "result": 31.5, "unit": "mm"}, {"measurement": "reduction of lipase activity", "setting": "lipase; 1 μg/ml Hexamidine", "result": 33, "unit": "%"}]}
